One substance from article PMC7429318 (Journal of controlled release : official journal of the …, 2020) can be followed below.

The test system of the data set is MDCKII cells. Briefly: Transwell permeability assay across MDCKII monolayer. In kind it is in vitro ADME, canine. The note with it: transwell (2D), LY 100 μM.

On to Lucifer yellow CH-lithium salt [LY], for which the “permeability in transwell assay (2D)” value was “about 3 × 10^−7 cm s^−1”.
